# According to patent publication US8691805B2, “Azetidinyl diamides as monoacylglycerol lipase inhibitors” (Janssen Pharmaceutica NV, priority 2009, dated 2014):
# Tests used:
# [1] = test system: CFA-induced paw radiant heat hypersensitivity in rats; assay: CFA-induced paw radiant heat hypersensitivity; assay type: in vivo; details: rat, 30 mg/kg p.o., HPβCD, group mean values, last time point 180 or 300 min
# Experimental: Each rat was placed in a test chamber on a warm glass surface and allowed to acclimate for approximately 10 min. A radiant thermal stimulus (beam of light) was then focused through the glass onto the plantar surface of each hind paw in turn. The thermal stimulus was automatically shut off by a photoelectric relay when the paw was moved or when the cut-off time was reached (20 sec for radiant heat at ˜5 amps). An initial (baseline) response latency to the thermal stimulus was recorded for each animal prior to the injection of complete Freund's adjuvant (CFA). 24 h following intraplantar CFA injection, the response latency of the animal to the thermal stimulus was then re-evaluated and compared to the animal's baseline response time. […] Post-compound treatment withdrawal latencies were assessed at fixed time intervals, typically 30, 60, 120, 180, and 300 min.
# The percent reversal (% R) of hypersensitivity was calculated in one of two different ways: 1) using group mean values or 2) using individual animal values. […]
# Method 1. For all compounds, the % R of hypersensitivity was calculated using the mean value for groups of animals at each time point according to the following formula: % reversal=[(group treatment response−group CFA response)/(group baseline response−group CFA response)]×100 Results are given for the maximum % reversal observed for each compound at any time point tested. […]
# [2] = target: T1, MGL in rat brain homogenate (Rattus norvegicus, UniProt Q8R431); assay: 2-AG accumulation assay in rat brain homogenate; assay type: biochemical; details: 2-AG accumulation as percent of vehicle; for Rat Brain 2AG % VehCntrl (%) @10 μM: compound 10 μM
# T1 construct: one g rat brain was homogenized; from tissue; host or cells: rat brain homogenate
# T1 sequence (Q8R431 1-303): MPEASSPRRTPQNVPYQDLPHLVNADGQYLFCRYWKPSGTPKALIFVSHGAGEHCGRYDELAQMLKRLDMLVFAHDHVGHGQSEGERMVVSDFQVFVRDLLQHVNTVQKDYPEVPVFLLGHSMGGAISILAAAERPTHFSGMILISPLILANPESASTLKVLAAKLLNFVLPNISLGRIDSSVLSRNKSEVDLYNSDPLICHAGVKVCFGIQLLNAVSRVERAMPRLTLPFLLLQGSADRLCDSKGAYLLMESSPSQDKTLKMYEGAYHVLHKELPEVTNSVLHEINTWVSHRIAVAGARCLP
# [3] = test system: murine model of acute inflammation; details: Comelli et al. 2007; cited from earlier work
# [4] = target: T2, mutant MGL (Homo sapiens, UniProt Q99685, L169S/L176S); assay: MGL ThermoFluor assay - mutant; details: read-out: MGL mutant ThermoFluor Kd, ThermoFluor thermal shift
# T2 sequence (Q99685 1-303 L169S/L176S): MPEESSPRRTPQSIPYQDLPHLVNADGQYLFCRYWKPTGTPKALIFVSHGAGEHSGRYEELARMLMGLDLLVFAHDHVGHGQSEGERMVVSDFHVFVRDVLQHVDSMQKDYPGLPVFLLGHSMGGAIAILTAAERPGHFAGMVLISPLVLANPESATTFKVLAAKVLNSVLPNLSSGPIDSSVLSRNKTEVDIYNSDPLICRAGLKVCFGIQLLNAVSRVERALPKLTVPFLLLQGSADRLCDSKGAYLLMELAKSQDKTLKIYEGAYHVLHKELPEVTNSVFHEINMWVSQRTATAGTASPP
# Experimental: The ThermoFluor (TF) assay is a 384-well plate-based binding assay that measures thermal stability of proteins^1,2. […] TF dye used in all experiments was 1,8-ANS (Invitrogen: A-47). Final TF assay conditions used for MGL studies were 0.07 mg/ml of mutant MGL, 100 μM ANS, 200 mM NaCl, 0.001% Tween-20 in 50 mM PIPES (pH=7.0).
# Screening compound plates contained 100% DMSO compound solutions at a single concentration. […] Columns 12 and 24 were used as DMSO reference and contained no compound. […] Following compound dispension, protein and dye solutions were added to achieve the final assay volume of 3 μL.
# Bar-coded assay plates were robotically loaded onto a thermostatically controlled PCR-type thermal block and then heated from 40 to 90° C. degrees at a ramp-rate of 1° C./min for all experiments. Fluorescence was measured by continuous illumination with UV light (Hamamatsu LC6), supplied via fiber optics and filtered through a band-pass filter (380-400 nm; >6 OD cutoff). Fluorescence emission of the entire 384-well plate was detected by measuring light intensity using a CCD camera (Sensys, Roper Scientific) filtered to detect 500±25 nm, resulting in simultaneous and independent readings of all 384 wells. […]
Compound,Method 1: peak % reversal [1] [%],Rat Brain 2AG % VehCntrl (%) @10 μM [2] [%],further results
"O=C(c1ccc2c(ccn2-c2ccc(C(F)(F)F)cc2)c1)N1CC(N2CCN(C(=O)c3cscn3)CC2)C1 [Cpd 1359, 5-({3-[4-(1,3-Thiazol-4-ylcarbonyl)piperazin-1-yl]azetidin-1-yl}carbonyl)-1-[4-(trifruoromethyl)phenyl]-1 H-indole]",5.1,–,–
"O=C(c1ccc(-c2ccc(O)cc2)cc1)N1CC(N2CCN(C(=O)c3nccs3)CC2)C1 [Cpd 211, 4′-({3-[(1,3-Thiazol-2-ylcarbonyl)piperazin-1-yl]azetidin-1-yl}carbonyl)biphenyl-4-ol]",–,725,–
"COc1ccc(-c2ccc(C(=O)N3CC(N4CCN(C(=O)c5nccs5)CC4)C3)cc2)cc1C=O [Cpd 216, 4-Methoxy-4′-({3-[(1,3-thiazol-2-ylcarbonyl)piperazin-1-yl]azetidin-1-yl}carbonyl)biphenyl-3-carbaldehyde]",–,625,–
O=C(c1ccc(-c2cccc(C(F)(F)F)c2)c(Cl)c1)N1CC(N2CCN(C(=O)c3cscn3)CC2)C1 [Cpd 1102],38,–,–
O=C(Nc1cccc(-c2ccccc2)c1)OC1CCCCC1 [URB602],–,–,antinociceptive effect [3]: showed an antinociceptive effect
O=C(c1nccs1)N1CCN(C2CN(C(=O)[C@@H]3C[C@H]3c3ccccc3Cl)C2)CC1 (racemic) [Cpd 642],–,–,Kd [4]: 499 nM; Rat Brain 2AG % VehCntrl (%) @1 μM ([2]; compound 1 μM): 170%
